These results are taken from PMC9968691, “Perfluoroalkyl substances (PFASs) are substrates of the renal human organic anion transporter 4 (OAT4)” (Archives of Toxicology, 2022).

Data set [1] deals with T1, human URAT1 (Homo sapiens, UniProt Q96S37).
T1 construct: expressed in transfected cells; host or cells: HEK293 cells transduced with recombinant baculovirus (CMV promoter)
T1 sequence (Q96S37 1-553): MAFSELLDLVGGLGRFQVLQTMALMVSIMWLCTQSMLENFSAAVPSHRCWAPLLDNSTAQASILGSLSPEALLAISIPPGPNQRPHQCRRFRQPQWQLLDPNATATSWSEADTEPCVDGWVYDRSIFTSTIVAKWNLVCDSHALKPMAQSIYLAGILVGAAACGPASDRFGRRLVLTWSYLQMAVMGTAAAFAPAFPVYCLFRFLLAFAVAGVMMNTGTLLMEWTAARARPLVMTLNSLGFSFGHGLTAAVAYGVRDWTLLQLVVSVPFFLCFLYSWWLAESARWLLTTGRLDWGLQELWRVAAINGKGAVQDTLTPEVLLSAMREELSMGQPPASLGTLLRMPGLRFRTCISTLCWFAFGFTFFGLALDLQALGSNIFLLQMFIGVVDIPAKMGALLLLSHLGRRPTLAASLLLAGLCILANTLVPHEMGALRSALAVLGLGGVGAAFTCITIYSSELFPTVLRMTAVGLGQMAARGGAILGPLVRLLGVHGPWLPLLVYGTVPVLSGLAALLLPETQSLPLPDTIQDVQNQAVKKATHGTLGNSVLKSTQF
In words: Screening of cellular PFAS accumulation in URAT1-transfected vs control-transfected HEK293 cells (PFAS mixture). It counts as cell-based. As to conditions: yes/no as identified in vitro in this study. From the text:
(§1) The recombinant baculoviruses that contain the cDNA of human transporters OAT4 and URAT1 downstream of a cytomegalovirus (CMV) promotor were generated as previously described (Smeets et al. [2020]). As a negative control, baculovirus containing the gene for enhanced yellow fluorescence protein (eYFP) was produced similarly. Moreover, transduction of HEK293 cells and uptake assays were essentially performed as previously described (Smeets et al. [2020]). The culture medium was removed and cells were washed with buffer (HBSS plus 10 mM HEPES, pH 7.4). Uptake was initiated by replacing this solution with 150 µL of fresh transport buffer (HBSS (Life Technologies Invitrogen (Carlsbad, CA, USA))-HEPES (Sigma-Aldrich), pH 7.4) supplemented with the PFASs for 10 min. To terminate the reaction, transport buffer was replaced with 400 µL ice-cold HBSS-HEPES buffer containing 0.5% BSA (m/v; Roche Diagnostics GmbH (Mannheim, Germany)), after which the cells were washed twice with ice-cold HBSS-HEPES. Cellular PFAS concentrations were determined based on the method described by Rosenmai et al. ([2018]). Briefly, cells were solubilised in 250 µL lysis buffer and cell lysates were stored in Eppendorf tubes at − 80 °C and defrozen when needed for LC–MS analysis and for quantification of the protein concentration.
(§2) To 50 μL cell lysate, 850 μL methanol (Actu-All Chemicals, Oss, The Netherlands) containing internal standards (^13C4-PFHpA, ^13C4-PFOA, ^13C5-PFNA, ^13C2-PFDA, ^13C3-PFBS, ^18O2-PFHxS and ^13C4-PFOS (Wellington Laboratories, Canada) was added. These dilutions were vortexed well before centrifugation at maximum speed for 10 min at 4 °C. PFAS concentrations in the supernatant were determined using LC–MS/MS analysis. If required, samples were further diluted with methanol and containing internal standards. LC–MS/MS analysis was based on a Shimadzu UHPLC system containing: 2 pumps (LC 20AD xr); column oven (Shimadzu CTO-20AC); pump switch (Shimadzu FCV-11AL); degasser (Shimadzu DGU-20A3); and sample tray holder (Shimadzu SIL-20 AC XR model) (Shimadzu Corporation, Kyoto, Japan). An Acquity BEH-C18 analytical column (50 × 2.1 mm i.d., 1.7 μm, Waters, Milford, MA, USA) was used to separate the PFASs at a column temperature of 35 °C. In addition, a symmetry C18 analytical column (50 × 2.1 mm i.d., 5 µm, Waters, Milford, MA, USA) was used as a guard column, placed between the pump and the injector valve to isolate and delay interferences out of the LC system. The mobile phase consisted of 2 mM ammonium acetate (Merck Millipore, Darmstadt, Germany) in Milli-Q water (prepared using a Milli-Q system with a resistivity of at least 18.2 MΩ cm^−1 (Merck Millipore)) (mobile phase A) and Acetonitrile ULC/MS grade (Actu-All Chemicals, Oss, The Netherlands) (mobile phase B). The injection volume used was 20 μL. The chromatographic gradient was operated at a flow rate of 0.3 mL min^−1 starting from 25% mobile phase B in the first 0.1 min, a linear increase to 100% B in 6 min with a final hold of 2.5 min. The gradient was returned to 25% B within 0.1 min for 3.9 min to equilibrate before the next injection, resulting in a total run of 12.5 min.
(§3) Cellular PFAS content was normalised to cellular protein. To that end, from each cell lysate, 25 µL was used to determine the protein concentration (technical duplicate) using the Pierce BCA Protein Assay Kit (Thermo Scientific, Waltham, MA). First, samples were diluted two times with lysis buffer directly in a 96-wells plate (PS, F-bottom, clear; Greiner Bio-One, Alphen aan de Rijn, The Netherlands), and in each plate, a BSA standard curve (0.05–2 mg mL^−1 in lysis buffer) was included allowing protein quantification of the samples. The manufacturer’s protocol was followed for the subsequent steps and absorbance was measured using a microplate reader (Synergy™ HT BioTek, Winooski, VT) at 562 nm. […]

The conditions of data set [2]: (average) serum half-life; ref Xu et al. (2020) for PFHpA; Olsen et al. (2007), Li et al. (2018), Xu et al. (2020) for PFOA, PFHxS, PFOS; Olsen et al. (2009) for PFBS; cited from earlier work.
Data set [3] deals with albumin. As to conditions: ref Allendorf et al. (2019); cited from earlier work.
The target of data set [4] is T2, human OAT4 (Homo sapiens, UniProt Q9NSA0).
T2 construct: expressed in transfected cells; host or cells: HEK293 cells transduced with recombinant baculovirus (CMV promoter)
T2 sequence (Q9NSA0 1-550): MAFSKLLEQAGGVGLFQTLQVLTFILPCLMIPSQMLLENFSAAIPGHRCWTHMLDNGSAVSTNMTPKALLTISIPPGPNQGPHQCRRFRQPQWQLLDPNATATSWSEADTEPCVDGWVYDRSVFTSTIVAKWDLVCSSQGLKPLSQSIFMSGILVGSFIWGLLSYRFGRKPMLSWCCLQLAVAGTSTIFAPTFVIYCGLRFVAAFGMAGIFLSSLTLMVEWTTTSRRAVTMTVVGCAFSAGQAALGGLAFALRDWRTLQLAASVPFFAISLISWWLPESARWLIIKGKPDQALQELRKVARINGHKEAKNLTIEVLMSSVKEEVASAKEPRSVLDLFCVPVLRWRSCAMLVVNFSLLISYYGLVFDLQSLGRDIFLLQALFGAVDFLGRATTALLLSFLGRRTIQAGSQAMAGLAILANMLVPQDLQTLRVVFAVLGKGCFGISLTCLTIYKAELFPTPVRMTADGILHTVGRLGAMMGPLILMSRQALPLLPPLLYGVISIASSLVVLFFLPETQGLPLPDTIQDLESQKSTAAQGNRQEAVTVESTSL
In words: OAT4-mediated cellular uptake kinetics (Michaelis–Menten) in OAT4-transfected vs control-transfected HEK293 cells. It counts as cell-based. As to conditions: OAT4-transfected minus control-transfected HEK293 cells, 1 min exposure, 1-300 µM; best-fit value (standard error).
Method: OAT4- and control-transfected cells were exposed for 1 min to a range of PFAS concentrations (1, 3, 10, 30, 100 and 300 µM) and cellular amounts were determined.
OAT4-transfected cells and control-transfected cells were exposed for 1 min to a range of PFAS concentrations and cellular amounts were determined. Amounts obtained in control-transfected cells were subtracted from amounts obtained in OAT4-transfected cells to obtain OAT4-mediated cellular uptake rates.

The target of data set [5] is T2, human OAT4. In words: Screening of cellular PFAS accumulation in OAT4-transfected vs control-transfected HEK293 cells (PFAS mixture). It counts as cell-based. The following applies: for Transport by OAT4 (cellular PFAS level in OAT4-transfected vs control-transfected cells; substantial = at least twofold higher): PFAS mixture, each 1 µM, 10 min; for OAT4 substrate: yes/no as identified in vitro in this study.
Excerpt: as §1, §2, §3

The test system of data set [6] is URAT1. Also on record: method as in Iwanaga et al. 2005; Morrissey et al. 2012. As to conditions: probe substrate; ref Iwanaga et al. 2005; Morrissey et al. 2012; cited from earlier work.
For data set [7], the system named is URAT1. Also on record: method as in Yang et al. 2010. The following applies: URAT1-expressing HEK293 cells; ref Yang et al. 2010; cited from earlier work.
In data set [8] the test system is OAT4. Also on record: method as in Yang et al. 2010. As to conditions: OAT4-expressing CHO cells; ref Yang et al. 2010; cited from earlier work.
The subject of data set [9] is OAT4. Also on record: method as in Kimura et al. 2002; Morrissey et al. 2012. As to conditions: probe substrate; ref Kimura et al. 2002; Morrissey et al. 2012; cited from earlier work.

SMILES strings stand for the structures. Entries after “also recorded” stand apart in the source; their conditions may differ. Marks after values point to notes of the source that are not given here.

As a reminder, the Km is the concentration of substrate that gives half-maximal velocity.

On to `O=S(=O)(O)C(F)(F)C(F)(F)C(F)(F)C(F)(F)C(F)(F)C(F)(F)C(F)(F)C(F)(F)F` [PFOS, perfluorooctane sulfonate], for which the URAT1 substrate entry in [1] was “No”. Further, in [2], the “Reported half-life in humans” value is 1.8–5.4^c years. In data set [3], the “Reported albumin/water partition coefficients” value is 4.7 L/kg. Moreover, in [4], the “Apparent Vmax” value was determined as 2.2 nmol min^−1 mg protein^−1. In [5], the “Transport by OAT4 (cellular PFAS level in OAT4-transfected vs control-transfected cells; substantial = at least twofold higher)” value is recorded as “substantial transport; also recorded: more than twofold increase” and the OAT4 substrate result was “Yes”.

For the compound `O=c1[nH]c(=O)c2[nH]c(=O)[nH]c2[nH]1` [Uric acid, uric acid], the URAT1 substrate entry in [6] is listed as “Yes”.

As to `O=C(O)C(F)(F)C(F)(F)C(F)(F)C(F)(F)C(F)(F)C(F)(F)C(F)(F)F` [PFOA, perfluorooctanoic acid], the URAT1 substrate entry in data set [1] is listed as “No”. For the same compound, the “Reported half-life in humans” value in [2] is recorded as 1.8–3.8^c years. For the same compound, the “Reported albumin/water partition coefficients” value in data set [3] was 4.2 L/kg. Moreover, in data set [7], the Km was 64 µM and the Vmax is on record as 0.32 nmol min^−1 mg protein^−1. For the same compound, in data set [5], the “Transport by OAT4 (cellular PFAS level in OAT4-transfected vs control-transfected cells; substantial = at least twofold higher)” value is reported as “substantial transport; also recorded: more than twofold increase” and the OAT4 substrate entry was “Yes”. Moreover, in data set [8], the Km was 310 µM and the Vmax was 37 nmol min^−1 mg protein^−1.

For `O=C(O)C(F)(F)C(F)(F)C(F)(F)C(F)(F)C(F)(F)C(F)(F)C(F)(F)C(F)(F)F` [PFNA, perfluorononanoic acid], the URAT1 substrate result in data set [1] is listed as “No”. Further, the “Reported albumin/water partition coefficients” value in data set [3] is 4.3 L/kg. In data set [4], the “Apparent Vmax” value amounted to 8.5 nmol min^−1 mg protein^−1. Also, in data set [5], the “Transport by OAT4 (cellular PFAS level in OAT4-transfected vs control-transfected cells; substantial = at least twofold higher)” value is recorded as “substantial transport; also recorded: more than twofold increase” and the OAT4 substrate result was “Yes”.

`CCCCC[C@H](O)/C=C/[C@H]1[C@H](O)CC(=O)[C@@H]1C/C=C\CCCC(=O)O` [Prostaglandin E2, prostaglandin E2]: the OAT4 substrate entry in [9] is “Yes”.
